pIC50, pKd: −log10 of the molar value.
Legend:
[1] = target: human serum albumin (HSA) (Homo sapiens, UniProt P02768)
Description: The ultrafiltration assay used to quantify the binding of the ^64Cu-labeled peptides to HSA was performed as previously described for NODAGA-cLAB-TATEs. , Briefly, a constant activity amount of the radioligands (10–15 MBq) were mixed with different HSA concentrations (200 nM–1.4 mM). Aliquots were loaded into the ultrafiltration devices (4104 centrifugal filter units by Millipore; 30 000 Da nominal molecular weight limit, methylcellulose micropartition membranes) and centrifuged. After centrifugation, aliquots from the top and bottom fractions were measured in a γ-counter (PerkinElmer, Wizard^2 2480 automatic gamma counter). The retained fraction was calculated as a quotient of these measurements. The dissociation constant, K d, was calculated using the Morrison equation.

in vivo = details: female, NMRI-nu/nu (Rj:NMRI-Foxn1nu/nu), mouse, iv, total radioactivity
Description: The biodistribution of [ ^ 64 Cu]­Cu-NODAGA-cLAB­(5/6)-TATE, [ ^ 64 Cu]­Cu-NODAGA-cLAB4- scr TATE, and [ ^ 64 Cu]­Cu-DOTA-EB-TATE was assessed in a subcutaneous MPC tumor allograft model via small-animal PET imaging (Figure A–D). The time-activity curves (TACs) for tumor, kidneys, and heart are shown in Figure A–D (for TACs of muscle and liver, see Figure S6) and the calculated areas under curves (AUC0–48h) and tumor-to-tissue ratios are graphically summarized in Figure E,F, respectively.
(A–D) Time-activity curves (SUV, decay-corrected, as a function of time up to 48 h) obtained by PET acquisition are depicted (0–2 h in dynamic mode and time points 5, 24, and 48 h p.i.; the x-axes are segmented accordingly). Data shown are mean values (±SD) of a group of MPC tumor-bearing NMRI-nu/nu mice (n = 2, but for cLAB6-TATE n = 4). […] (E) Calculated AUC0–48h values. Data shown are mean values (±SD). (F) Tumor/organ ratios based in the AUC0–48h values.
A number of 4 × 10^6 MPC cells were resuspended in 40 μL of Dulbecco’s phosphate-buffered saline and injected subcutaneously into the shoulder of 7–10-week-old female nude mice (Rj:NMRI-Foxn1^nu/nu, Janvier Laboratories, Le Genest-Saint-Isle, France). General anesthesia was induced and maintained with inhalation of 10% (v/v) desflurane in 30% oxygen/air (v/v). Tumor growth was monitored using caliper measurements. Animals were sacrificed using CO2 inhalation and cervical dislocation. When diameters of MPC tumors reached 8 ± 3 mm (volumes of 65–282 mm^3), small-animal positron emission tomography (PET) was performed using the nanoScan PET/CT (Mediso Medical Imaging Systems, Budapest, Hungary) and Si78 PET/CT (BRUKER, Billerica, MA) instruments. Scanners were cross-calibrated using a syringe source containing 10 MBq of [^64Cu]­CuCl2 diluted in 2 mL of 0.01 M HCl. Each mouse (n = 2) received between 7 and 10 MBq of the respective radioligand (A m = 40 GBq/μmoL) delivered in 0.154 M NaCl via intravenous injection through a tail vein catheter within the initial 30 s after scan start. […] Standardized uptake values (SUV = [MBq detected activity/mL tissue]/[MBq injected activity/g body weight]) were determined in defined volumes of interest (VOIs) and reported as VOI-averaged SUVmean ± range [min–max]. Assuming a density of 1 g/mL for body tissues, the SUVs become dimensionless.

intact AR42J cells = test system: intact AR42J cells; design: method as in not given; details: nonlabeled ligands, ref not given; cited from earlier work
[2] = test system: SST2-transfected HTC116 cells; design: method as in not given; details: nonlabeled ligands, ref not given; cited from earlier work

human serum albumin (HSA), sequence (P02768 25-609): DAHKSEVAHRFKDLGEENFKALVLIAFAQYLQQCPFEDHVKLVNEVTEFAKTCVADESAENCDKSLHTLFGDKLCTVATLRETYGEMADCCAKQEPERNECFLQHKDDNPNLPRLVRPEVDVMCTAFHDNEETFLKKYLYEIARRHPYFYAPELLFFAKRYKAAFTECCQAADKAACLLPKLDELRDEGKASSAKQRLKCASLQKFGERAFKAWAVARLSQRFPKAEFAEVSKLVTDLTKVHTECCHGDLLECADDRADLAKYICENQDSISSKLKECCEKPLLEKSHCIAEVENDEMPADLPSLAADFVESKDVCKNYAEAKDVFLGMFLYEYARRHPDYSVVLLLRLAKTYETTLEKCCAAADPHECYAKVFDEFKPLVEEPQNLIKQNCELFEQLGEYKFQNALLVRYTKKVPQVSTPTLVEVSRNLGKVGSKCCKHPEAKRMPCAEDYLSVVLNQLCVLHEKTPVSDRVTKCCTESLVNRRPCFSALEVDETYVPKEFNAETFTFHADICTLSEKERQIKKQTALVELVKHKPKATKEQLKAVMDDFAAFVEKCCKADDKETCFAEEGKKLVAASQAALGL

| pKd [1] | logD | SUV at 24 h (in vivo) [SUV] | SUV at 48 h (in vivo) [SUV] | SUV at 72 h (in vivo) [SUV] | Compound | pIC50 (intact AR42J cells) | pIC50 [2] |
| --- | --- | --- | --- | --- | --- | --- | --- |
| 5.92 | -2.26 | 6 | 5.6 | 5.6 | Cc1cc(-c2ccc(NC(=O)[C@H](CCCCNC(=O)CCN3C(=O)CC(SCCC(=O)N[C@H](Cc4ccccc4)C(=O)N[C@H]4CSSC[C@@H](C(=O)N[C@H](C(=O)O)[C@@H](C)O)NC(=O)[C@H]([C@@H](C)O)NC(=O)[C@H](CCCCN)NC(=O)[C@@H](Cc5c[nH]c6ccccc56)NC(=O)[C@H](Cc5ccc(O)cc5)NC4=O)C3=O)NC(=O)CN3CCN(CC(=O)O)CCN(CC(=O)O)CCN(CC(=O)O)CC3)c(C)c2)ccc1/N=N/c1ccc2c(S(=O)(=O)O)cc(S(=O)(=O)O)c(N)c2c1O (stereo partly shown) [[64Cu]Cu-DOTA-EB-TATE, metal not drawn] |  |  |
|  |  |  |  |  | DOTA-TATE | 8.46 | 7.99 |

Reference: paper PMC12169663, “Deciphering the Tumor Uptake of Heterobivalent (SST2/Albumin) [^64Cu]Cu-NODAGA-cLAB-TATEs” (Journal of Medicinal Chemistry, 2025)
